# From ChEMBL document CHEMBL2028040, “Malaria Box”
# Assays:
# [1] = tested on: Trypanosoma cruzi; assay: MMV: Inhibition of Trypanosoma cruzi (Tulahuen C4 LacZ) (Chagas in vitro).; assay type: functional, organism-based
# [2] = tested on: Plasmodium falciparum; assay: MMV: Inhibition of Plasmodium falciparum 3D7 (EC50).; assay type: functional, organism-based
# [3] = tested on: Trypanosoma brucei brucei; assay: MMV: Inhibition of Trypanosoma brucei brucei (Squib 427) (HAT in vitro).; assay type: functional, organism-based
# [4] = tested on: Trypanosoma brucei rhodesiense; assay: MMV: Inhibition of Trypanosoma brucei rhodesiense (STIB 900) (HAT in vitro).; assay type: functional, organism-based
# [5] = tested on: Leishmania infantum; assay: MMV: Inhibition of Leishmania infantum (MHOM/MA/BE/67) in vitro.; assay type: functional, organism-based
# [6] = MMV: Cytotoxicity against human fibroblasts (MRC-5) cells.; details: MRC-5 cells (human fibroblasts)
# [7] = tested on: Plasmodium falciparum; assay: MMV: Inhibition of Plasmodium falciparum 3D7 at 5uM compound concentration.; assay type: functional
IC50 [1] [µM],EC50 [2] [µM],IC50 [3] [µM],IC50 [4] [µM],IC50 [5] [µM],SMILES,IC50 [6] [µM],inhibition at 5 µM [7] [%]
17.1,0.707,16.3,16,16,CCN(CC)CCNc1ncnc2c1[nH]c1ccc(Br)cc12,> 32,
> 32,0.686,> 32,> 32,> 32,COc1ccc2nc(C)cc(Nc3ccccc3O)c2c1,> 32,
> 32,0.218,> 32,> 32,16.2,CCN1CCCC1CNc1[nH]cnc2c3cc(Cl)ccc3nc1-2 (stereo unspecified),> 32,
13.9,0.89,4.15,3.56,16.2,OC1=C2C(=Nc3ccccc3SC2c2ccccc2)c2ccccc21 (stereo unspecified),15.7,
4.2,1.79,15.5,1.8,5.38,COc1ccc(C2c3ccc4ccccc4c3Oc3ncn(CCCn4ccnc4)c(=N)c32)cc1OC (stereo unspecified),10.1,
16,0.296,14,16,> 32,C[n+]1c2ccccc2nc2ccc(NCCO)cc21,> 32,
13.4,1.15,15,14.5,> 32,COc1cccc(C2(C)Nc3ccccc3-c3nc4ccccc4n32)c1 (stereo unspecified),26.4,
6.35,0.0581,10.2,10.3,17.3,CCN(CC)CCNc1ccnc2cc(Cl)ccc12,> 32,
0.234,0.929,0.481,0.305,4.32,Cc1cccc(-n2ncc3c(O)nc(-n4nc(C)cc4NC(=O)c4cc5ccccc5o4)nc32)c1,0.653,
12.9,0.916,4,3.56,12,COc1ccc(CCN2C(=O)c3[nH]nc(-c4cc(Cl)c(C)cc4O)c3C2c2ccccc2F)cc1 (stereo unspecified),> 32,
> 32,0.477,> 32,> 32,> 32,COc1ccc(-c2c(C)nn3c(N)c(C#N)cnc23)cc1OC,27.6,
1.01,1.23,0.259,0.223,1.01,COc1ccc(C2c3ccc4ccccc4c3Oc3ncn(CCCN(C)C)c(=N)c32)cc1 (stereo unspecified),3.49,
13.5,0.939,16,11.9,17.3,COC(=O)c1ccc(Cl)c2c1C1C=CCC1C(c1cccc3ccccc13)N2 (stereo unspecified),> 32,
22.5,0.433,16.1,1.7,16.1,O=C(NCC(c1ccsc1)N1CCCCCC1)c1ccc(C(F)(F)F)cc1 (stereo unspecified),> 32,
> 32,1.16,> 32,15.7,25.4,N#Cc1nc(Cc2cccc3ccccc23)oc1N1CCN(C(c2ccccc2)c2ccccc2)CC1,> 32,
> 32,0.351,> 32,> 32,> 32,CCOC(=O)c1cnc2ccc(CC)cc2c1O,> 32,
19.2,1.06,10,6.12,16.1,OC(CNCC1CCCO1)Cn1c2ccc(Cl)cc2c2cc(Cl)ccc21 (stereo unspecified),> 32,
30.8,1.19,14.6,11,21.5,CN1CCN(c2ncnc3c2[nH]c2ccc(Cl)cc23)CC1,> 32,
> 32,0.35,> 32,> 32,> 32,O=C(O)C1Cc2c([nH]c3ccccc23)C(c2ccc(Cl)cc2Cl)N1 (stereo unspecified),> 32,
> 32,,> 32,19.7,> 32,COc1ccccc1CNC(=O)C1c2ccccc2C(=O)N(CC(C)C)C1c1cccs1 (stereo unspecified),> 32,97
> 32,,13.7,13.5,> 32,O=C(Nc1ccccc1O)c1ccc(-c2ccc(Cl)cc2Cl)o1,> 32,97
> 32,,11,15.4,> 32,Cc1c(C)n(Cc2ccc(F)cc2)c2ccc(C(=O)NCc3ccco3)cc12,> 32,52

IC50 [1] [µM],EC50 [2] [µM],IC50 [3] [µM],IC50 [4] [µM],IC50 [5] [µM],SMILES,IC50 [6] [µM],inhibition at 5 µM [7] [%]
13,,14.9,4.95,10.1,CCOC(=O)c1cnc2ccc(OC)cc2c1NCc1ccccc1,> 32,87
> 32,,> 32,> 32,> 32,CCOc1ccc(CCNC(=O)c2cccs2)cc1OCC,> 32,95
> 32,,16.5,16.2,> 32,CCN(CC)CCCNc1ccnc2cc3ccccc3cc12,> 32,90
16,,3.72,3.94,16.1,Cc1ccc(OCCCCCCNCCO)c(C)c1,> 32,49
> 32,,> 32,> 32,> 32,COCCn1c(C)nc2ccccc2c1=O,> 32,59
> 32,,> 32,> 32,> 32,CCN(CC)c1ccc(NC(=O)c2cccs2)cc1,> 32,88
17.4,,19.6,18,> 32,CN(C)c1ccc(-c2nc3cc(N)ccc3[nH]2)cc1,> 32,64
8.56,,0.271,0.25,4,CCN(CC)CCCNc1nc(-c2ccc(Cl)cc2)nc2ccccc12,15.8,92
> 32,,> 32,> 32,> 32,COc1ccc(-c2cc3c(nn2)-c2ccccc2C3=O)cc1,> 32,97
> 32,,> 32,16.1,> 32,COCCNC(=O)c1ccc(OC2CCN(Cc3ccc(F)c(F)c3)CC2)c(Cl)c1,> 32,91
> 32,,> 32,> 32,> 32,O=C(Nc1ccc(Cl)cc1)N1CCN(c2ccc3nncn3n2)CC1,> 32,62
4.15,,1.02,1.65,0.846,COc1ccc(C(=O)C(CCC(CNC(C)(C)C)C(=O)c2ccc(OC)cc2)CNC(C)(C)C)cc1 (stereo unspecified),10.3,85
0.165,,27,16,19,CCOc1cccc2sc(N(Cc3cccnc3)C(=O)C3CCCCC3)nc12,> 32,94
4.26,,3.85,4,4.76,COc1ccc(C(O)(CCC(C)C)C(CN2CCOCC2)c2ccc(Cl)cc2)cc1 (stereo unspecified),10.8,97
> 32,,14.9,15.3,> 32,CCOc1ccc(-c2nc(NC(=O)c3cccc(S(C)(=O)=O)c3)sc2C)cc1,> 32,95
> 32,,> 32,> 32,> 32,COc1ccc(C2N(C)c3ccccc3N2C)cc1,> 32,62
> 32,,> 32,> 32,> 32,CCCCOc1ccc(C(=O)Nc2cc(C)on2)cc1,> 32,73
0.899,,16.2,16.2,> 32,COc1ccccc1N1CCN(C(CNS(=O)(=O)c2ccc(Cl)cc2)c2cccnc2)CC1 (stereo unspecified),> 32,93
> 32,,16.1,> 32,> 32,CC(C)(C)c1ccc(C(=O)Nc2c3c(nn2-c2cccc(Cl)c2)CSC3)cc1,> 32,93
4.78,,16.2,12.5,4.32,CCCCCCC(O)(c1ccc(F)cc1)C(CN1CCOCC1)c1ccccc1 (stereo unspecified),> 32,93
5.21,,4,3.09,10.2,O=C(Nc1ccc(Br)cc1)Nc1cccc(Cl)c1,> 32,94
> 32,,> 32,> 32,> 32,COc1ccc(C(=O)Nc2ccc(Cl)cc2C(=O)Nc2ccncc2)cc1,> 32,93

SMILES,IC50 [1] [µM],EC50 [2] [µM],IC50 [3] [µM],IC50 [4] [µM],IC50 [5] [µM],IC50 [6] [µM],inhibition at 5 µM [7] [%]
CCOc1cc(CNC(C)C(O)c2ccccc2)cc(Cl)c1OCC (stereo unspecified),25.4,1.24,11.5,8.67,16.6,> 32,
Oc1ccc(C(=C(Cl)Cl)c2ccc(O)cc2)cc1,> 32,,> 32,> 32,> 32,> 32,95
